Laboratory results taken from ChEMBL document CHEMBL1124410, “New antitumor monoclonal antibody-vinca conjugates LY203725 and related compounds: design, preparation, and representative in vivo activity” (J Med Chem, 1989).
In brackets after ≈: the same amount, converted by molar mass.

What was measured:
CCRF-CEM = assay: In vitro inhibition of CCRF-CEM human leukemic lymphoblasts proliferation was determined; assay type: functional, cell-based
[1] = In vitro inhibition of P3UCLA human adenocarcinoma cell proliferation was determined in MTT proliferation assay; assay type: functional

Row | IC50 (CCRF-CEM) [µg/mL] | Structure (SMILES) | IC50 [1] [µg/mL]
1 | 0.1 (≈ 0.123 µM) | CC[C@]1(O)CC2CN(CCc3c([nH]c4ccccc34)[C@@](C(=O)OC)(c3cc4c(cc3OC)N(C)C3C45CCN4CC=C[C@](CC)(C45)C(OC(C)=O)[C@]3(O)C(=O)OC)C2)C1 (stereo partly specified) | –
2 | 1.4 (≈ 1.61 µM) | CC[C@]1(O)CC2CN(CCc3c([nH]c4ccccc34)[C@@](C(=O)OC)(c3cc4c(cc3OC)N(C)C3C45CCN4CC=C[C@](CC)(C45)C(OC(=O)CCC(=O)O)[C@]3(O)C(=O)OC)C2)C1 (stereo partly specified) | 0.003 (≈ 0.00345 µM)
3 | – | CC[C@]1(O)CC2CN(CCc3c([nH]c4ccccc34)[C@@](C(=O)OC)(c3cc4c(cc3OC)N(C)C3C45CCN4CC=C[C@](CC)(C45)C(O)[C@]3(O)C(=O)OC)C2)C1 (stereo partly specified) | 0.0003 (≈ 0.00039 µM)

Row | Structure (SMILES) | IC50 (CCRF-CEM) [µg/mL] | IC50 [1] [µg/mL]
4 | CC[C@]1(O)C[C@@H]2CN(CCc3c([nH]c4ccccc34)[C@@](C(=O)OC)(c3cc4c(cc3OC)N(C)[C@H]3[C@@](O)(C(=O)NN)[C@H](O)[C@]5(CC)C=CCN6CC[C@]43[C@@H]65)C2)C1 [DESACETYLVINBLASTINEHYDRAZIDE] | 0.03 (≈ 0.039 µM) | < 0.0003
